In publication PMC9354243, “The Role of Tryptophan in π Interactions in Proteins: An Experimental Approach” (Journal of the American Chemical Society, 2022):

System: LmrR variants
Experiment: SPR of the LmrR-Dau interaction at 10 and 25 °C, all LmrR variants
Assay type: binding, Lactococcus lactis
Procedure: The thermodynamics of the LmrR–Dau interaction was recently reported to be mostly entropy driven.[21] To investigate this point in more detail the temperature dependence of the LmrR–Dau interaction was studied by surface plasmon resonance (SPR) experiments at 10 and 25 °C. […] The average ΔΔG from 6 LmrR variants is around 0.1 kJ/mol. These values imply that the temperature effects on the ΔGs are negligible, which would be in line with a low contribution of entropic factors to the Dau–LmrR interaction.
RibU. […]
MALDI-TOF. […] Spots were measured using a Voyager DE-PRO MALDI-TOF (time of flight) instrument (Applied Biosystems). The incorporation efficiency of Trp analog was calculated after measuring the peak areas of the peptide conta ining either Trp or Trp analog.
Binding assays - surface plasmon resonance (SPR). LmrR and mutants were immobilized on a CM5 sensor chip and binding of drugs was monitored using a BIACORE3000 system. The binding responses of Dau and RBF to LmrR were measured in triplicate at both 25 °C and 10 °C, in HBS-EP running buffer (10 mM HEPES, pH 7.4, 150 mM NaCl, 50 µM EDTA, and 0.005% surfactant P-20). The binding responses were corrected by subtracting the response measured in the control lane, to which a […]

With `COc1cccc2c1C(=O)c1c(O)c3c(c(O)c1C2=O)C[C@@](O)(C(C)=O)C[C@@H]3O[C@H]1C[C@H](N)[C@H](O)[C@H](C)O1` [Dau, Daunomycin] the “Fold increase of binding affinity at lower temperature” value (10 °C versus 25 °C, all LmrR variants) was 1.4–3.5 fold and the “Average ΔΔG (ΔG10 °C – ΔG25 °C)” value (average from 6 LmrR variants) was “around 0.1 kJ/mol”.
